Consider two compounds from article PMC12862769 (ACS infectious diseases, 2025).

The subject of one data set is mouse gut microbiome. Nature of the data set: Mouse gut microbiome diversity in fecal pellets. The format is in vivo, C57BL/6 mice. As to conditions: same regimens; day −1 vs day 7 (and 14).
The next data set concerns E. faecium NR-31909. Kind of data set: Multi-step resistance selection assay. The format is cell-based. Particulars: after five passages.

With `CCC[C@@H]1C[C@@H](C(=O)N[C@@H]([C@H]2O[C@H](SC)[C@H](O)[C@@H](O)[C@H]2O)[C@H](C)Cl)N(C)C1` [clindamycin], in the data set on mouse gut microbiome, the “change in beta diversity (Bray-Curtis dissimilarity), pre- vs post-treatment” value is reported as “significant change”.

`CO[C@H]1/C=C/O[C@@]2(C)Oc3c(C)c(O)c4c(O)c(c(/C=N/N5CCN(C)CC5)c(O)c4c3C2=O)NC(=O)/C(C)=C\C=C\[C@H](C)[C@H](O)[C@@H](C)[C@@H](O)[C@@H](C)[C@H](OC(C)=O)[C@@H]1C` [rifampicin] yielded an MIC increase in the data set on E. faecium NR-31909 of 8 fold MIC.
